From US20120109286A1, “ANTIMICROBIAL COATINGS” (priority 2009, published 2012) come the findings set out here.

Holding throughout (conditions): 24 h at 37° C.
For one assay, the system named is S. aureus. As to the kind of experiment: Zone of inhibition around monomer pellets or powder. Format: cell-based, Staphylococcus aureus. The source says: (§1) ZSB powder was used to show antimicrobial efficacy.
The test system of the next assay is P. aeruginosa. As to the kind of experiment: Zone of inhibition around monomer pellets. Format: cell-based, Pseudomonas aeruginosa.
A further assay has as its system M. luteus. As to the kind of experiment: Zone of inhibition around monomer pellets or powder. The format is cell-based, Micrococcus luteus.
Excerpt: as §1

SMILES strings stand for the structures.

Consider `O=C1C=CC(=O)[N]1[Ag]([P+](c1ccccc1)(c1ccccc1)c1ccccc1)[P+](c1ccccc1)(c1ccccc1)c1ccccc1` [PSSM, Phosphine Stabilised Silver Maleimide], for which the results for the zone of inhibition result with S. aureus, in the assay on P. aeruginosa and with M. luteus were “sharp ring of inhibition”, “more blurred inhibition zones” and “sharp ring of inhibition”, respectively.
